The source of these data is patent publication US10421765B2, “Tetrahydropyrido[4,3-d]pyrimidine inhibitors of ATR kinase” (Board of Regents, The University of Texas System, priority 2017, dated 2019).

Where two headings read alike, the source gives them in different places.

For one test, the target named is ATR/ATRIP complex (Homo sapiens (Human), UniProt Q13535). The test can be described thus: ATR/ATRIP enzymatic assay (Caliper-based). It counts as biochemical. The following applies: FAM-labeled RAD17 peptide, ATP. The procedure, abridged:
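FLAG-TEV-ATR/His6-ATRIP co-expressed in HEK293 and anti-FLAG purified. Compound preincubated 30 min at 28 °C with enzyme (2x solution 4 nM), then FAM-RAD17 peptide (2x solution 10 uM, 2 μM ATP) added for 6 h at 28 °C; HEPES pH 8, 10 mM MnCl2. Caliper conversion read-out, IC50 from four-parameter fit.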

For test [1], the system named is ATR-driven phosphorylation of Chk1 kinase at Serine 345 in HT-29 colorectal adenocarcinoma cells. The test can be described thus: pCHK1 cellular assay (CHK1 p-Ser345 AlphaScreen SureFire). Format: cell-based. The following applies: Homo sapiens, HT-29, HT-29 cells, 4-nitroquinoline N-oxide 12 uM; read-out: Cell IC50 (pCHK1 IC50 values). An outline of the steps:
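HT-29 cells seeded overnight, treated with 1:3 serially diluted compound for 90 minutes at 37° C., then 12 uM (final) 4-nitroquinoline N-oxide for 120 minutes. Lysates read for Chk1 p-Ser345 by AlphaScreen SureFire; IC50 from four-parameter logistic fit, normalized to DMSO (max) and 5 uM ATR inhibitor (min).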

Where [2] appears, read: read-out: ATR/ATRIP Enzyme IC50.
Where [3] appears, read: estimated range, read-out: ATR/ATRIP Enzyme IC50 (estimated class).

ATR/ATRIP complex, sequence (Q13535 whole entry): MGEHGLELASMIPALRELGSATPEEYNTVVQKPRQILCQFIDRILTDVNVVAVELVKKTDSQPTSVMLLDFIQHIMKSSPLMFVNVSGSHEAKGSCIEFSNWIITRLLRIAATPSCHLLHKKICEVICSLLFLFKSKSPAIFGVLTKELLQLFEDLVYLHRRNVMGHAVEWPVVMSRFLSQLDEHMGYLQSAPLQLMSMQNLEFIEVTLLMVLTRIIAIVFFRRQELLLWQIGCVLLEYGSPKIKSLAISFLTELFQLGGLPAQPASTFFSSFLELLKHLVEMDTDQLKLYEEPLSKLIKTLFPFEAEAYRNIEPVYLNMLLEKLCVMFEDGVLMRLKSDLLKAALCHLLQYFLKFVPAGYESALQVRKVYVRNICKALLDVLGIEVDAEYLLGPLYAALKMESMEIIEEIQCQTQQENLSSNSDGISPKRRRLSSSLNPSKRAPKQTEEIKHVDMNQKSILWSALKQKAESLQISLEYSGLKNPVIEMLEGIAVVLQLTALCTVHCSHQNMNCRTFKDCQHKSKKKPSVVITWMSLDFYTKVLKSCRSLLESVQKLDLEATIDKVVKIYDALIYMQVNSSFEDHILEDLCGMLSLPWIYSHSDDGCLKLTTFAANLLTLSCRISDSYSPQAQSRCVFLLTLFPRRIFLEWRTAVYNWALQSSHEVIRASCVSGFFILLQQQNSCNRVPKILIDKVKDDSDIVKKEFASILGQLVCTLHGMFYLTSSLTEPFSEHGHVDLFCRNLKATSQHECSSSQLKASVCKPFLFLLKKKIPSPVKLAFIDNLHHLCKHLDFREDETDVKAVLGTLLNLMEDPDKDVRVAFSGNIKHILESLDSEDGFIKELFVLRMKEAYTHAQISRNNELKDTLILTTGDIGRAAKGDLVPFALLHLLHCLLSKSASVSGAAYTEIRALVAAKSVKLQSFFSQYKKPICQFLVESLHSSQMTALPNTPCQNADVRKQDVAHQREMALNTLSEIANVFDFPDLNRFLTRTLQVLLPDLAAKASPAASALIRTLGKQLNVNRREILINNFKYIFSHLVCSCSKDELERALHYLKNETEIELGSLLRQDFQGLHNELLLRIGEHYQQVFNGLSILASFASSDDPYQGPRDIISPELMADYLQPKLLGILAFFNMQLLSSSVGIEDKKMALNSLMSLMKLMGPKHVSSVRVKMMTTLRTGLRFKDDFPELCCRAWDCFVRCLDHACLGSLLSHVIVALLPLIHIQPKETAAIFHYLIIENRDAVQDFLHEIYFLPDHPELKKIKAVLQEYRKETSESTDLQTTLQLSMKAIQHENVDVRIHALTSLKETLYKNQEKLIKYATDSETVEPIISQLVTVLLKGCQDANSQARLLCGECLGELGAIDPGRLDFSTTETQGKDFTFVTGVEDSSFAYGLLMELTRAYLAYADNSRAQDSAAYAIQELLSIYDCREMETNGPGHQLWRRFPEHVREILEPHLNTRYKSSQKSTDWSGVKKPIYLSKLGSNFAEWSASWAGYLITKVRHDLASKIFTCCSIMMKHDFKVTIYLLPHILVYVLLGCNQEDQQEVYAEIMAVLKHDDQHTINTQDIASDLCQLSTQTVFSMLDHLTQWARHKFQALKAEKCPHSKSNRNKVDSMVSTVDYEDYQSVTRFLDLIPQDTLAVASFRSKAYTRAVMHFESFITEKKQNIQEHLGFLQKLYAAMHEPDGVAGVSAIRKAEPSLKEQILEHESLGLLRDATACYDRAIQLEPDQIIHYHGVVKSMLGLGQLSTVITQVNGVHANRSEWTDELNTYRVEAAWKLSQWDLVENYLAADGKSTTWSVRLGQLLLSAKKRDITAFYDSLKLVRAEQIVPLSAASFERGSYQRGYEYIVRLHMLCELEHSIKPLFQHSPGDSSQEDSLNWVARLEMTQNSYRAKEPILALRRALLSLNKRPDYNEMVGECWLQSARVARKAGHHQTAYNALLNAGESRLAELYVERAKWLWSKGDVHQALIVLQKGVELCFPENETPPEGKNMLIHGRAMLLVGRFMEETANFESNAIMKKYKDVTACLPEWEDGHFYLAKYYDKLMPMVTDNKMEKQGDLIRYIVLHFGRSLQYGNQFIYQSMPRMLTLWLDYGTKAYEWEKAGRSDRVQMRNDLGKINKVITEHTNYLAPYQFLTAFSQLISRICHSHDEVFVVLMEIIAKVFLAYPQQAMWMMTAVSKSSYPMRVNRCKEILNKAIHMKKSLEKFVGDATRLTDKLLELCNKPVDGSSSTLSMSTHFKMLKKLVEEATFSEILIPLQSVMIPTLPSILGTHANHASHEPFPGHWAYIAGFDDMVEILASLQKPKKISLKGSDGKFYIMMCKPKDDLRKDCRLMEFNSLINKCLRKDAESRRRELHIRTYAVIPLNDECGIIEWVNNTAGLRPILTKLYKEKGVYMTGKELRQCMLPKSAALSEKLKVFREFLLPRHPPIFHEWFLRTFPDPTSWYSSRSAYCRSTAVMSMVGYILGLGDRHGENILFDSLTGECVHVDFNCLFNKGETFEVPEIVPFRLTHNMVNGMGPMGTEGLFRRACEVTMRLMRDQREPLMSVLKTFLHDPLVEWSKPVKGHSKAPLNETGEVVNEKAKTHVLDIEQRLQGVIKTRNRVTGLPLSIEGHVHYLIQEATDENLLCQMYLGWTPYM
ATR/ATRIP complex, sequence (Q8WXE1 whole entry partner): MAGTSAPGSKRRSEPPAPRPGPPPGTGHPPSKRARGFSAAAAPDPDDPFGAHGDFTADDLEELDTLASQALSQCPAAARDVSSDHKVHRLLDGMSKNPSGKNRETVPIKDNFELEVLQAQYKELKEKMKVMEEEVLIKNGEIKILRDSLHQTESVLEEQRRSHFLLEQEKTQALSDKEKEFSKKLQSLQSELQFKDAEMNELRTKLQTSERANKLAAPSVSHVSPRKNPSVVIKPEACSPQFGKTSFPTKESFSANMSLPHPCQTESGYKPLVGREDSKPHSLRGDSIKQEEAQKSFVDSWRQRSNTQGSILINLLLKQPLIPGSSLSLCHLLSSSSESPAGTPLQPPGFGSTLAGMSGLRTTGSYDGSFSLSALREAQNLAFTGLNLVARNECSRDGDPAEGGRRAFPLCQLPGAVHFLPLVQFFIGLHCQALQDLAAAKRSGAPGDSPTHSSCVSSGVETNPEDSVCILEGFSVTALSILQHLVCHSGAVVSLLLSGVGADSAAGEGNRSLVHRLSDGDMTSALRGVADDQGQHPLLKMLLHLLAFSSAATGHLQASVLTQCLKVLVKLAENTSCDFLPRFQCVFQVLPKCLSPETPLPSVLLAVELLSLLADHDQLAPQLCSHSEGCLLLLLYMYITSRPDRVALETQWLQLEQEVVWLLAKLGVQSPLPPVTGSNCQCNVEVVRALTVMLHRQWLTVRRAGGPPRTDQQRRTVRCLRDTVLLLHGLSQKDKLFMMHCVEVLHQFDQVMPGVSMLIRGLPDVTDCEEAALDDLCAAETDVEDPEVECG

Regarding `CS(=O)(=O)N1CCC(c2ncnc3c2CN(c2ccnc4[nH]ccc24)[C@@H](C(F)F)C3)CC1` [Example 53a, (R)-7-(difluoromethyl)-4-(1-(methylsulfonyl)piperidin-4-yl)-6-(1H-pyrrolo[2,3-b]pyridin-4-yl)-5,6,7,8-tetrahydropyrido[4,3-d]pyrimidine], the “ATR/ATRIP Enzyme IC50” value at ATR/ATRIP complex is on record as “no fit”. Also, the IC50 in test [1] was found to be 10000 nM.
Take `C[C@@H]1Cc2ncnc(C3CCN(S(C)(=O)=O)CC3)c2CN1c1nccc2[nH]ccc12` [Example 59, (R)-7-methyl-4-(1-(methylsulfonyl)piperidin-4-yl)-6-(1H-pyrrolo[3,2-c]pyridin-4-yl)-5,6,7,8-tetrahydropyrido[4,3-d]pyrimidine]: the IC50 on ATR/ATRIP complex (setting [2]) is 2650 nM; in test [1] it was 555 nM.
As to `CS(=O)(=O)c1cccc(-c2ncnc3c2CN(c2ccnc4[nH]ccc24)CC3)c1` [Example 14, 4-(3-methanesulfonyl-phenyl)-6-{1H-pyrrolo-[2,3-b]pyridin-4-yl}-5H,6H,7H,8H-pyrido [4,3-d]pyrimidine], the IC50 is 1000 to 10000 nM at ATR/ATRIP complex (setting [3]) and 1610 nM in test [1].
In the case of `C[C@@H]1Cc2ncnc(C3CCN(S(C)(=O)=O)CC3)c2CN1c1cc(C#N)nc2[nH]ccc12` [Example 98, (R)-4-(7-methyl-4-(1-(methylsulfonyl)piperidin-4-yl)-7,8-dihydro-pyrido[4,3-d]pyrimidin-6(5H)-yl)-1H-pyrrolo-[2,3-b]pyridine-6-carbonitrile], the IC50 was determined as 336 nM on ATR/ATRIP complex (setting [2]) and 265 nM in test [1].
Regarding `C[C@@H]1Cc2ncnc(N3CC(NS(C)(=O)=O)C3)c2CN1c1ccnc2[nH]ccc12` [Example 84, (R)-N-(1-(7-methyl-6-(1H-pyrrolo[2,3-b]-pyridin-4-yl)-5,6,7,8-tetrahydropyrido[4,3-d]pyrimidin-4-yl)-azetidin-3-yl)-methanesulfonamide], the IC50 on ATR/ATRIP complex (setting [2]) was 722 nM; in test [1], 79 nM.
For the molecule `CCS(=O)(=O)N1CCCC(c2ncnc3c2CN(c2cc(Cl)nc4[nH]ccc24)[C@H](C)C3)C1` (stereo partly drawn) [Example 24, 3-[(7R)-6-{6-chloro-1H-pyrrolo[2,3-b]pyridin-4-yl}-7-methyl-5H,6H,7H,8H-pyrido[4,3-d]pyrimidin-4-yl]-1-(ethanesulfonyl)-piperidine], the IC50 on ATR/ATRIP complex (setting [3]) was 1000 to 10000 nM; in test [1], 285 nM.
With `C[C@@H]1Cc2ncnc(C3CCCN(S(C)(=O)=O)C3)c2CN1c1ccnc2[nH]ccc12` (single isomer, unassigned) [Example 50a], the results for the IC50 (on ATR/ATRIP complex (setting [2]); in test [1]) were 1200 nM and 55 nM, respectively.
In the case of `CS(=O)(=O)N1CCC(c2ncnc3c2CN(c2ccnc4[nH]ccc24)C(CF)C3)CC1` (stereo not drawn) [Example 92], the IC50 on ATR/ATRIP complex (setting [2]) is 1290 nM; in test [1], 586 nM.
For the molecule `CNC(=O)[C@H]1CCCN(c2ncnc3c2CN(c2cc(Cl)nc4[nH]ccc24)[C@H](C)C3)C1` [Example 67, (S)-1-((R)-6-(6-chloro-1H-pyrrolo[2,3-b]pyridin-4-yl)-7-methyl-5,6,7,8-tetrahydropyrido[4,3-d]-pyrimidin-4-yl)-N-methylpiperidine-3-carboxamide], the figures for the IC50 (at ATR/ATRIP complex (setting [2]); in test [1]) were 140 nM and 9 nM, respectively.
As to `C[C@@H]1Cc2ncnc(C3CCN(S(=O)(=O)C4CC4)CC3)c2CN1c1ccnc2[nH]ccc12` [Example 80, (R)-4-(1-(cyclopropyl-sulfonyl)piperidin-4-yl)-7-methyl-6-(1H-pyrrolo[2,3-b]pyridin-4-yl)-5,6,7,8-tetrahydro-pyrido[4,3-d]pyrimidine], the IC50 was 1090 nM at ATR/ATRIP complex (setting [2]) and 132 nM in test [1].
`C[C@@H]1Cc2ncnc(N3CCC(S(C)(=N)=O)CC3)c2CN1c1cc(Cl)nc2[nH]ccc12` (stereo partly drawn) [Example 58, (1-((R)-6-(6-chloro-1H-pyrrolo[2,3-b]pyridin-4-yl)-7-methyl-5,6,7,8-tetrahydropyrido[4,3-d]pyrimidin-4-yl)piperidin-4-yl)(imino)(methyl)-λ^6-sulfanone]: the IC50 on ATR/ATRIP complex (setting [2]) is 966 nM; in test [1] it was 218 nM.
As to `CS(=O)(=O)N1CCC(c2ncnc3c2CN(c2ccnc4[nH]ccc24)[C@H](CF)C3)CC1` [Example 52b, (S)-7-(fluoromethyl)-4-(1-(methylsulfonyl)piperidin-4-yl)-6-(1H-pyrrolo[2,3-b]pyridin-4-yl)-5,6,7,8-tetrahydropyrido[4,3-d]pyrimidine], the results for the IC50 (on ATR/ATRIP complex (setting [2]); in test [1]) were 878 nM and 209 nM, respectively.
